US12139488B2, “Pyrido[3,2-d]pyrimidine compounds uses thereof for treating a proliferative disease” (Universite de Montreal, priority 2021, dated 2024)
pIC50: −log10 of the molar value. Read-outs that look alike come from different tables or passages of the source.

What was measured:
[1] = target: BRAF (Homo sapiens (Human), UniProt P15056); assay: BRAF kinase activity assay (ADP-Glo); format: biochemical; details: for pIC50: first kinase column (c6), * symbols, read-out: Kinase IC50
Procedure: (§1) Compound preparation: solid samples of each substances in 1 dram vials were suspended in DMSO (Fisher Scientific) at a stock concentration of 20 mM. Stocks were kept at −20° C. and protected from light.
(§2) In vitro enzymatic reactions were used for evaluating compounds intrinsic activity against BRAF, CRAF and ARAF. […] Separate reactions were performed with the MEK1 substrate and ATP as a blank control.
(§3) For compound treatment, 5 μL/well of test substance solution are placed in a 384-well proxyplate (Perkin Elmer) and mixed with 2× concentrated kinase reactions. The dilution series is selected so that nine concentrations cover a range from 100 nM to 0.01 nM. […] The final concentration of DMSO in the assay is set at 0.05%.
(§4) BRAF and CRAF kinase reactions were carried out for a total of 2 hours at 30° C. and then stopped by ½ dilution in ADP-Glo Reagent (cat #V9102; Promega; part V912C). Reactions were then incubated for 1h at room temperature before addition of one volume of Kinase Detection Reagent (cat #V9102; Promega; part V917A). Plates were then equilibrated at room temperature for 30 minutes before detection of luminescence on a Synergy Neo2 plate reader (Biotek). The effect of each compound dilution on BRAF and CRAF kinase activity was expressed as % inhibition and calculated as follows.
(§5) IC50 values were obtained by plotting the kinase inhibition values and fitting the dose-activity curves using a log(agonist) versus response-variable slope (four parameters) function using either GraphPadPrism (V7.0) or Dotmatics Screening Ultra platform.

[2] = target: CRAF (Homo sapiens, UniProt P04049); assay: CRAF kinase activity assay (ADP-Glo); format: biochemical
Chain of CRAF (P04049 whole entry, looked up): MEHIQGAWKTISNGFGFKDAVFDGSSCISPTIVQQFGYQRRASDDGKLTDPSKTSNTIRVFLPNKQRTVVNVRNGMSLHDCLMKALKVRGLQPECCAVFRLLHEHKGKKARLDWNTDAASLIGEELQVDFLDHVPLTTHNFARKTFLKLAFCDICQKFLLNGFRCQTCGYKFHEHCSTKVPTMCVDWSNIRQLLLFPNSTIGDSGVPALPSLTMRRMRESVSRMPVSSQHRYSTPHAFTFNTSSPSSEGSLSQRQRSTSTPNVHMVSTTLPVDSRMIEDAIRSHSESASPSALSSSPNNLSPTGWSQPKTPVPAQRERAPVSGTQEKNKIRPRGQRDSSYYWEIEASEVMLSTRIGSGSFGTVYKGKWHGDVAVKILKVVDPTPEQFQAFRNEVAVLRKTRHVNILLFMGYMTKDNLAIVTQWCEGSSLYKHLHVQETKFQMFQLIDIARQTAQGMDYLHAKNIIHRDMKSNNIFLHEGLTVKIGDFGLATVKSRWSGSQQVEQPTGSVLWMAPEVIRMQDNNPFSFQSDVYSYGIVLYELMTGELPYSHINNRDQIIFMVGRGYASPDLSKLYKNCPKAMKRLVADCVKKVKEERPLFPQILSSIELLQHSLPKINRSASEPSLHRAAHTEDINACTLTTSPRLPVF
Procedure: as §1, §2, §3, §4, §5

[3] = test system: pERK in HCT-116 cells (KRAS G13D); assay: Phospho-ERK inhibition (AlphaLISA SureFire Ultra p-ERK 1/2), HCT116; format: cell-based, human; details: for HCT116 pERK % Ymin (lowest value of the IC50 curve): Ymin above −20% = minimal or no paradoxical activation
In short: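 Overnight-seeded cells received compound for an hour before lysis, and phospho-ERK1/2 was then measured with an AlphaLISA SureFire Ultra kit. Percent inhibition relative to vehicle, after trametinib background subtraction, gave IC50 by curve fitting.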

[4] = read-out: Kinase IC50 (nM) BRAF
[5] = read-out: Kinase IC50 (nM) CRAF
[6] = HCT116 cells, class symbol before the bracket
[7] = BRAF, read-out: Kinase IC50 (nM), BRAF biochemical kinase assay
[8] = CRAF, read-out: Kinase IC50 (nM), CRAF biochemical kinase assay
[9] = § symbols, read-out: Kinase IC50
[10] = Homo sapiens, HCT-116, HCT116 cells, class symbol
[11] = Table 5, read-out: Kinase IC50 (nM) BRAF
[12] = Table 5, read-out: Kinase IC50 (nM) CRAF
[13] = lowest value of the curve, HCT116, Table 5

Chain of BRAF (P15056 whole entry): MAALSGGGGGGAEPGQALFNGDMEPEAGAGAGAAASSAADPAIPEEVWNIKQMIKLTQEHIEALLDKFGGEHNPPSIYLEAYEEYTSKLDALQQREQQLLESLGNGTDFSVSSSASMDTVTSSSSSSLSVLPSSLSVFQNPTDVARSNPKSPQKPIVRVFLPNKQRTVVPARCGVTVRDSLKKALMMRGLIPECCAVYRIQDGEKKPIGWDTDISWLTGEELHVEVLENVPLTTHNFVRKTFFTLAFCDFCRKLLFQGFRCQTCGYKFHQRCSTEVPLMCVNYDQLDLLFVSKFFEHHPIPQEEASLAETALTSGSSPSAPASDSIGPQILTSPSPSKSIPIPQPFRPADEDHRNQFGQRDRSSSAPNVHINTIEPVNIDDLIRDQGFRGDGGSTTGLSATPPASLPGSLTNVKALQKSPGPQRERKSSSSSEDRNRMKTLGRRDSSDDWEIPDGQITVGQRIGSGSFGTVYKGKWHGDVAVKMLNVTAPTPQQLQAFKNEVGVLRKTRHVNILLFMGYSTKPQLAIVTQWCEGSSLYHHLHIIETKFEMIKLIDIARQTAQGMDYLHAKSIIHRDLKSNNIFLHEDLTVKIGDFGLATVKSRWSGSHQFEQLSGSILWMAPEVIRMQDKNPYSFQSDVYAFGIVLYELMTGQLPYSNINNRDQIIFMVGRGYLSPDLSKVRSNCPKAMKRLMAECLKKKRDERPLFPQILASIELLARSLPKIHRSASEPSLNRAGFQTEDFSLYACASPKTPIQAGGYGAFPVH

## O=S(=O)(Nc1ccc(F)c(Nc2ncnc3ccc(-n4cnc5c(CN6CC(O)C6)cccc54)nc23)c1F)c1ccccc1Cl [Ex 225]
[1]; [4]
  IC50: 1 to 10 nM
[2]; [5]
  IC50: 10 to 50 nM
[3]; HCT116 cells, Ymin in brackets
  HCT116 pERK Ymin %: −8%
[3]; [6]
  pIC50: 5.00 to 6.00

## NCC(=O)c1cn(-c2ccc3ncnc(Nc4c(F)ccc(NS(=O)(=O)c5ccccc5Cl)c4F)c3n2)c2ccccc12 [Example 223]
[1]; [4]
  IC50: 1 to 10 nM
[2]; [5]
  IC50: > 50 nM
[3]; HCT116 cells, Ymin in brackets
  HCT116 pERK Ymin %: −9%
[3]; [6]
  pIC50: 5.00 to 6.00

## CN1CCN(c2ncc(-c3ccc4ncnc(Nc5c(F)ccc(NS(=O)(=O)c6cccc(Cl)c6Cl)c5F)c4n3)s2)CC1 [Example 613]
[1]; [7]
  IC50: 1 to 10 nM
[2]; [8]
  IC50: 10 to 50 nM
[3]; HCT116 cells
  pIC50: 6.00 to 6.30
  HCT116 pERK % Ymin (lowest value of the IC50 curve): −3%

## NCc1cccc2c1ncn2-c1ccc2ncnc(Nc3c(F)ccc(NS(=O)(=O)c4ccccc4Cl)c3F)c2n1 [Ex 217]
[1]; [4]
  IC50: < 1 nM
[2]; [5]
  IC50: < 10 nM
[3]; HCT116 cells, Ymin in brackets
  HCT116 pERK Ymin %: −9%
[3]; [6]
  pIC50: 5.00 to 6.00

## Cc1c(F)cccc1S(=O)(=O)Nc1ccc(F)c(Nc2ncnc3ccc(-n4cnc(/C=C/C#N)c4)nc23)c1F [Example 343, (E)-N-(3-((6-(4-(2-cyanovinyl)-1H-imidazol-1-yl)pyrido[3,2-d]pyrimidin-4-yl)amino)-2,4-difluorophenyl)-3-fluoro-2-methylbenzenesulfonamide]
[1]
  pIC50: 8.00 to 9.00
[2]; [9]
  pIC50: 7.30 to 8.00
[3]; [10]
  pIC50: > 6.30

## CN(C)Cc1cccc2c1ncn2-c1ccc2ncnc(Nc3c(F)ccc(NS(=O)(=O)c4ccccc4Cl)c3F)c2n1 [Ex 216]
[1]; [4]
  IC50: 1 to 10 nM
[2]; [5]
  IC50: 10 to 50 nM
[3]; HCT116 cells, Ymin in brackets
  HCT116 pERK Ymin %: −8.8%
[3]; [6]
  pIC50: 6.00 to 6.30

## Cc1c(F)cccc1S(=O)(=O)Nc1ccc(F)c(Nc2ncnc3ccc(-n4cnc5c(CO)cccc54)nc23)c1F [Example 345, N-[2,4-difluoro-3-[[6-[4-(hydroxymethyl)benzimidazol-1-yl]pyrido[3,2-d]pyrimidin-4-yl]amino]phenyl]-3-fluoro-2-methyl-benzenesulfonamide]
[1]
  pIC50: 8.00 to 9.00
[2]; [9]
  pIC50: > 8.00
[3]; [10]
  pIC50: > 6.30

## O=S(=O)(Nc1ccc(F)c(Nc2ncnc3ccc(-n4cnc5c(-c6cccnc6)cccc54)nc23)c1F)c1ccccc1Cl [Example 243]
[1]; [4]
  IC50: 1 to 10 nM
[2]; [5]
  IC50: < 10 nM
[3]; HCT116 cells, Ymin in brackets
  HCT116 pERK Ymin %: −3.9%
[3]; [6]
  pIC50: > 6.30

## COC1CN(Cc2cccc3c2ncn3-c2ccc3ncnc(Nc4c(F)ccc(NS(=O)(=O)c5ccccc5Cl)c4F)c3n2)C1 [Ex 226]
[1]; [4]
  IC50: 1 to 10 nM
[2]; [5]
  IC50: > 50 nM
[3]; HCT116 cells, Ymin in brackets
  HCT116 pERK Ymin %: −9%
[3]; [6]
  pIC50: 5.00 to 6.00

## Cc1c(Cl)csc1S(=O)(=O)Nc1ccc(F)c(Nc2ncnc3ccc(-n4cnc5ccccc54)nc23)c1F [Example 315]
[1]; [4]
  IC50: 1 to 10 nM
[2]; [5]
  IC50: < 10 nM
[3]; HCT116 cells, 1 h treatment
  pIC50: > 6.30
[3]; lowest % inhibition value of the IC50 curve, HCT116
  HCT116 pERK Ymin %: −12%

## CC(=O)c1cn(-c2ccc3ncnc(Nc4c(F)ccc(NS(=O)(=O)c5ccccc5Cl)c4F)c3n2)c2ccccc12 [Ex 214]
[1]; [4]
  IC50: 1 to 10 nM
[2]; [5]
  IC50: > 50 nM
[3]; HCT116 cells, Ymin in brackets
  HCT116 pERK Ymin %: −12%
[3]; [6]
  pIC50: 5.00 to 6.00

## CN(C)c1nnc(-c2nn(-c3ccc4ncnc(Nc5c(F)ccc(NS(=O)(=O)c6cccc(Cl)c6Cl)c5F)c4n3)c3ccccc23)o1 [Example 209]
[1]; [4]
  IC50: 1 to 10 nM
[2]; [5]
  IC50: 10 to 50 nM
[3]; HCT116 cells, Ymin in brackets
  HCT116 pERK Ymin %: −6%
[3]; [6]
  pIC50: 4.52 to 5.00

## O=S(=O)(Nc1ccc(F)c(Nc2ncnc3ccc(-n4nc(-c5ncc[nH]5)c5ccccc54)nc23)c1F)c1cccc(Cl)c1Cl [Example 212]
[1]; [4]
  IC50: 1 to 10 nM
[2]; [5]
  IC50: > 50 nM
[3]; HCT116 cells, Ymin in brackets
  HCT116 pERK Ymin %: −13%
[3]; [6]
  pIC50: 5.00 to 6.00

## O=S(=O)(Nc1cc(F)c(F)c(Nc2ncnc3ccc(-n4nnc5ccccc54)nc23)c1F)c1cccc(Cl)c1Cl [Example 649]
[1]; [11]
  IC50: 1 to 10 nM
[2]; [12]
  IC50: < 10 nM
[3]; HCT116 cells, Table 5
  pIC50: > 6.30
[3]; [13]
  HCT116 pERK Ymin %: 3%

## CC(=O)N1CCCc2nn(-c3ccc4ncnc(Nc5c(F)ccc(NS(=O)(=O)c6cccc(Cl)c6Cl)c5F)c4n3)cc21 [Example 486]
[1]
  pIC50: 8.00 to 9.00
[2]; [9]
  pIC50: > 8.00
[3]; [10]
  pIC50: 6.00 to 6.30

## O=S(=O)(Nc1ccc(F)c(Nc2ncnc3ccc(-c4cnc(N5CCOCC5)s4)nc23)c1F)c1cccc(Cl)c1Cl [Example 631]
[1]; [7]
  IC50: > 10 nM
[2]; [8]
  IC50: 10 to 50 nM
[3]; HCT116 cells
  pIC50: > 6.30
  HCT116 pERK % Ymin (lowest value of the IC50 curve): 0%

## CC(C)NCc1cccc2c1ncn2-c1ccc2ncnc(Nc3c(F)ccc(NS(=O)(=O)c4ccccc4Cl)c3F)c2n1 [Ex 222]
[1]; [4]
  IC50: 1 to 10 nM
[2]; [5]
  IC50: 10 to 50 nM
[3]; HCT116 cells, Ymin in brackets
  HCT116 pERK Ymin %: −11%
[3]; [6]
  pIC50: 5.00 to 6.00

## CN(C)C(=O)c1cn(-c2ccc3ncnc(Nc4c(F)ccc(NS(=O)(=O)c5ccccc5Cl)c4F)c3n2)c2ccccc12 [Ex 87]
[1]; [4]
  IC50: < 1 nM
[2]; [5]
  IC50: 10 to 50 nM
[3]; HCT116 cells, Ymin in brackets
  HCT116 pERK Ymin %: −4.4%
[3]; [6]
  pIC50: > 6.30

## O=S(=O)(Nc1ccc(F)c(Nc2ncnc3ccc(-n4cnc5c(CN6CCC(O)CC6)cccc54)nc23)c1F)c1ccccc1Cl [Ex 229]
[1]; [4]
  IC50: < 1 nM
[2]; [5]
  IC50: 10 to 50 nM
[3]; HCT116 cells, Ymin in brackets
  HCT116 pERK Ymin %: −7%
[3]; [6]
  pIC50: 5.00 to 6.00

## O=S(=O)(Nc1ccc(F)c(Nc2ncnc3ccc(-n4cnc5c(C6CCNCC6)cccc54)nc23)c1F)c1cccc(Cl)c1Cl [Example 662, 2,3-dichloro-N-[2,4-difluoro-3-[[6-[4-(4-piperidyl)benzimidazol-1-yl]pyrido[3,2-d]pyrimidin-4-yl]amino]phenyl]benzenesulfonamide]
[1]; [7]
  IC50: < 1 nM
[2]
  pIC50: > 8.00
[3]; HCT116 cells
  HCT116 pERK % Ymin (lowest value of the IC50 curve): −6%
[3]; Homo sapiens, HCT-116, HCT116 cells
  pIC50: 5.00 to 6.00

## O=S(=O)(Nc1ccc(F)c(Nc2ncnc3ccc(-n4cnc5c(N6CCC(O)(CCO)CC6)cccc54)nc23)c1F)c1cccc(Cl)c1Cl [Example 671]
[1]; [7]
  IC50: < 1 nM
[2]; [8]
  IC50: < 10 nM
[3]; HCT116 cells
  pIC50: > 6.30
  HCT116 pERK % Ymin (lowest value of the IC50 curve): −5%

## COc1ccc(S(=O)(=O)Nc2ccc(F)c(Nc3ncnc4ccc(-n5cnc6ccccc65)nc34)c2Cl)cc1 [Example 239]
[1]; [11]
  IC50: > 10 nM
[2]; [12]
  IC50: > 50 nM
[3]; HCT116 cells, Table 5
  pIC50: 5.00 to 6.00
[3]; [13]
  HCT116 pERK Ymin %: 6.7%

## CNCc1cccc2c1ncn2-c1ccc2ncnc(Nc3c(F)ccc(NS(=O)(=O)c4ccccc4Cl)c3F)c2n1 [Ex 215]
[1]; [4]
  IC50: 1 to 10 nM
[2]; [5]
  IC50: 10 to 50 nM
[3]; HCT116 cells, Ymin in brackets
  HCT116 pERK Ymin %: −9%
[3]; [6]
  pIC50: 5.00 to 6.00

## O=S(=O)(Nc1ccc(F)c(Nc2ncnc3ccc(-n4cnc5c(C6(CO)CC6)cccc54)nc23)c1F)c1cccc(Cl)c1Cl [Example 612]
[1]; [7]
  IC50: 1 to 10 nM
[2]; [8]
  IC50: < 10 nM
[3]; HCT116 cells
  pIC50: > 6.30
  HCT116 pERK % Ymin (lowest value of the IC50 curve): −10%

## Cc1c(Cl)cccc1S(=O)(=O)Nc1ccc(F)c(Nc2ncnc3ccc(-n4cnc5c(O)cccc54)nc23)c1F [Example 116]
[1]; [4]
  IC50: < 1 nM
[2]; [5]
  IC50: < 10 nM
[3]; HCT116 cells, Ymin in brackets
  HCT116 pERK Ymin %: −18%
[3]; [6]
  pIC50: 6.00 to 6.30

## O=S(=O)(Nc1ccc(F)c(Nc2ncnc3ccc(-c4cnc5n4CCCC5)nc23)c1F)c1cccc(Cl)c1Cl [Example 561]
[1]; [7]
  IC50: 1 to 10 nM
[2]; [8]
  IC50: < 10 nM
[3]; HCT116 cells
  pIC50: > 6.30
  HCT116 pERK % Ymin (lowest value of the IC50 curve): −13%
